Results reported in patent publication US5436229A, “Bisulfite adducts of arginine aldehydes” (Eli Lilly and Company, priority 1994, dated 1995).

How the values were obtained:
Assay type in all cases: biochemical
human thrombin = human thrombin (Homo sapiens, UniProt P00734); assay: Thrombin amidase inhibition (Kass), chromogenic substrate
Protocol: The assay is carried out by mixing 50 μl buffer (0.03M Tris, 0.15M NaCl, pH 7.4) with 25 μl of human thrombin solution (purified human thrombin, Enzyme Research Laboratories, South Bend, Ind., at 8 NIH units/ml) and 25 μl of test compound in a solvent (50% aqueous methanol (v:v)). Then 150 μl of an aqueous solution of the chromogenic substate (at 0.25 mg/ml) are added and the rates of hydrolysis of the substrate are measured by monitoring the reactions at 405 nm for the release of p-nitroaniline. Standard curves are constructed by plotting free thrombin concentration against hydrolysis rate. […] The amount of free inhibitor in each assay is calculated by subtracting the number of moles of bound thrombin from the number of moles of added inhibitor (test compound).
The Kass value is the hypothetical equilibrium constant for the reaction between thrombin and the test compound (I) . [formula]
Kass is calculated for a range of concentrations of test compounds and the mean value reported in units of liter per mole.

factor Xa = biological target: T1, factor Xa (Homo sapiens, UniProt P00742); assay: Serine protease inhibition (Kass), factor Xa
T1 construct: Human factors X, Xa, IXa, XIa, and XIIa are purchased from Enzyme Research Laboratories; purchased Enzyme Research Laboratories, South Bend, Ind
T1 sequence (P00742 235-488 limits assumed): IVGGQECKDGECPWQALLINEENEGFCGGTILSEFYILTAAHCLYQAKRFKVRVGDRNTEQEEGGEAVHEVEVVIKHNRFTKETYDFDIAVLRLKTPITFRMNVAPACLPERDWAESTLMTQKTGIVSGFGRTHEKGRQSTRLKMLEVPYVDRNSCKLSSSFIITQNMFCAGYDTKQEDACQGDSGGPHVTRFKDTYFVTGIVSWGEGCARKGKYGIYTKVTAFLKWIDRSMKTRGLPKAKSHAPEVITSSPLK
T1 sequence (P00742 41-179 partner limits assumed): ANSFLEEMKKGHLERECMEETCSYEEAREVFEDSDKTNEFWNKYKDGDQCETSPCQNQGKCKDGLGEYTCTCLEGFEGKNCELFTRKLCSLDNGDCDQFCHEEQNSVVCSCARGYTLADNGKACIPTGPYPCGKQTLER
Protocol: (§1) By substantially following the procedures described above for human thrombin, and using other human blood coagulation system serine proteases and using fibrinolytic system serine proteases, with the appropriate chromogenic substrates, identified below, the selectivity of the compounds of the present invention with respect to the coagulation factor serine proteases and to the fibronolytic serine proteases are evaluated as well as their substantial lack of interference with human plasma clot fibrinolysis.
(§2) Human factors X, Xa, IXa, XIa, and XIIa are purchased from Enzyme Research Laboratories, South Bend, Ind.; human urokinase from Leo Pharmaceuticals, Denmark; and recombinant activated Protein C (aPC) is prepared at Eli Lilly and Co. substantially according to U.S. Pat. No. 4,981,952 incorporated by reference herein in its entirety. Chromogenic substrates: N-Benzoyl-Ile-Glu-Gly-Arg-p-nitroanilide (for factor Xa); N-Cbz-D-Arg-Gly-Arg-p-nitroanilide (for factor IXa assay as the factor Xa substrate); Pyroglutamyl-Pro-Arg-p-nitroanilide (for Factor XIa and for aPC); H-D-Pro-Phe-Arg-p-nitroanilide (for factor XIIa); and Pyroglutamyl-Gly-Arg-p-nitroanilide (for urokinase); are purchased from KabiVitrum, Stockholm, Sweden, or from Midwest Biotech, Fishers, Ind. Bovine trypsin is purchased from Worthington Biochemicals, Freehold, N.J., and human plasma kallikrein from Kabi Vitrum, Stockholm, Sweden. Chromogenic substrate H-D-Pro-Phe-Arg-p-nitroanilide for plasma kallikrein is purchased from Kabi Vitrum, Stockholm, Sweden. N-Benzoyl-Phe-Val-Arg-p-nitroanilide, the substrate for human thrombin and for trypsin, is synthesized according to procedures described above for the compounds of the present invention, using known methods of peptide coupling from commercially available reactants, or purchaed from Midwest Biotech, Fishers, Ind.

Bovine trypsin = biological target: T2, Bovine trypsin (Bos taurus, UniProt P00760); assay: Serine protease inhibition (Kass), trypsin
T2 construct: Bovine trypsin is purchased from Worthington Biochemicals; purchased Worthington Biochemicals, Freehold, N.J
T2 sequence (P00760 24-246): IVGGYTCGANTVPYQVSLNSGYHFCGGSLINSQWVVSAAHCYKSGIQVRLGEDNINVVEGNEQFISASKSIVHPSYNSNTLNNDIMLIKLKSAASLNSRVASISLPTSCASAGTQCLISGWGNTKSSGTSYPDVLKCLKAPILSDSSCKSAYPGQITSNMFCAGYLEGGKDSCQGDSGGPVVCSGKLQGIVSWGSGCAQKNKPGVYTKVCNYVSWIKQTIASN
Protocol: as §1, §2

Human plasmin = biological target: T3, Human plasmin (Homo sapiens, UniProt P00747); assay: Serine protease inhibition (Kass), plasmin
T3 construct: Human plasmin is purchased from Boehringer Mannheim; purchased Boehringer Mannheim, Indianapolis, Ind
T3 sequence (P00747 581-810 limits assumed): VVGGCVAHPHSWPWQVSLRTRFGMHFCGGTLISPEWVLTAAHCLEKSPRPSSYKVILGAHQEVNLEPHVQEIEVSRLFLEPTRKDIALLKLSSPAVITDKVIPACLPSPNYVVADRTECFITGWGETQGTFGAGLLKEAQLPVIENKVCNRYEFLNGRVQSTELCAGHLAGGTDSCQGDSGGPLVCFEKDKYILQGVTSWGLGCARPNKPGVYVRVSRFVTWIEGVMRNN
T3 sequence (P00747 97-580 partner limits assumed): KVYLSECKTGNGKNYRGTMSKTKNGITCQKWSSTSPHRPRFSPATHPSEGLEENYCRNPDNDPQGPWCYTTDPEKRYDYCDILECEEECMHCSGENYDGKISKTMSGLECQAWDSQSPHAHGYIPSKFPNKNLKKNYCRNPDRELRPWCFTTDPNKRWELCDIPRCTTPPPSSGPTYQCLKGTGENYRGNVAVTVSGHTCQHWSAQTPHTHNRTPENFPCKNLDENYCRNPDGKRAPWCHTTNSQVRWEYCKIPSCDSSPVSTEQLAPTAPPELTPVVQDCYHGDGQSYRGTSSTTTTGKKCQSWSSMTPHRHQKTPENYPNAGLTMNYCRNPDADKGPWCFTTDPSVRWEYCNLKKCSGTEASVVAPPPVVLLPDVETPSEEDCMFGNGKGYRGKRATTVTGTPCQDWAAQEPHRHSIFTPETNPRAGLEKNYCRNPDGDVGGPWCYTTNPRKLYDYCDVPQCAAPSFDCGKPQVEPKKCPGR
Protocol: as §1
(§3) Human plasmin is purchased from Boehringer Mannheim, Indianapolis, Ind.; nt-PA is purchased as single chain activity reference from American Diagnostica, Greenwich, Conn.; modified-t-PA6 (mt-PA6) is prepared at Eli Lilly and Company by procedure known in the art (See, Burck, et al., J. Biol. Chem., 265, […] (1990). Plasmin chromogenic substrate H-D-Val-Leu-Lys-p-nitroanilide and tissue plasminogen activator (t-PA) substrate H-D-Ile-Pro-Arg-p-nitroanilide are purchased from Kabi Vitrum, Stockholm, Sweden.

[1] = biological target: T4, tissue plasminogen activator (t-PA) (Homo sapiens, UniProt P00750); assay: Serine protease inhibition (Kass), t-PA
T4 construct: purchased American Diagnostica, Greenwich, Conn
T4 sequence (P00750 36-562): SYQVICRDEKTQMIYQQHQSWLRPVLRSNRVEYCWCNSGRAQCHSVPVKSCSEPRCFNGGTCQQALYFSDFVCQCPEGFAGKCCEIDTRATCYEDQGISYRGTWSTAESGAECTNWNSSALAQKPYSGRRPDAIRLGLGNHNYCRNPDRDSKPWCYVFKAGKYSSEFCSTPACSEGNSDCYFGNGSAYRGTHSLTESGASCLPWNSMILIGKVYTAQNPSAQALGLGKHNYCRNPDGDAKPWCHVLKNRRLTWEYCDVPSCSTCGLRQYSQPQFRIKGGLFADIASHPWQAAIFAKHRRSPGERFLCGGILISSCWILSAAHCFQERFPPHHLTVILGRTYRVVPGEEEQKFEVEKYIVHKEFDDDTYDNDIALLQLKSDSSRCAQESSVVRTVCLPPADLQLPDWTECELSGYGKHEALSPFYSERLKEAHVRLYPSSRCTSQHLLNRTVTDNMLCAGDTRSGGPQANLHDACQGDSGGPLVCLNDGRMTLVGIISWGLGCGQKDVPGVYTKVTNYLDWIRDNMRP
Protocol: as §1, §3

human plasma [2] = assay: Human plasma anticoagulation, thrombin time (TT)
Protocol: (§4) Fibrinogen is prepared from in-date ACD human blood as the fraction I-2 according to previous procedures and specifications. Smith, Biochem. […] Coagulation reagents ACTIN, Thromboplastin, and Human plasma are from Baxter Healthcare Corp., Dade Division, Miami, Fla. Bovine thrombin from Parke-Davis (Detroit, Mich.) is used for coagulation assays in plasma. Coagulation assay procedures are as previously described. […] A CoAScreener coagulation instrument (American LABor, Inc.) is used for all coagulation assay measurements. […] The compounds of formula I are added to human or animal plasma over a wide range of concentrations to determine prolongation effects on the APTT, PT, and TT assays. Linear extrapolations are performed to estimate the concentrations required to double the clotting time for each assay.

human plasma [3] = assay: Human plasma anticoagulation, activated partial thromboplastin time (APTT)
Protocol: as §4

human plasma [4] = assay: Human plasma anticoagulation, prothrombin time (PT)
Protocol: as §4

Compound | Kass Human Thrombin (human thrombin) [L/mol × 10^6] | Kass Xa (factor Xa) [L/mol × 10^6] | Kass Trypsin (Bovine trypsin) [L/mol × 10^6] | Kass Plasmin (Human plasmin) [L/mol × 10^6] | Kass t-PA [1] [L/mol × 10^6] | 2 × Clotting time TT (human plasma [2]) | 2 × Clotting time APTT (human plasma [3]) | 2 × Clotting time PT (human plasma [4])
Cl.Cn1c(C(=O)NC2(C(=O)N3CCC[C@H]3C(=O)N[C@H](C=O)CCCNC(=N)N)CCCCC2)cc2ccccc21 [Example 32, 1-(1-methylindolyl-2-carbonylamino)cyclohexoyl-L-prolinyl-L-arginine aldehyde hydrochloride] | 5.7 | 0.024 | 0.45 | 0.0071 | 0.0011 | 1,000 ng/mL | 11,000 ng/mL | 9,200 ng/mL
Cl.Cn1c(C(=O)NC(C)(Cc2ccccc2)C(=O)N2CCC[C@H]2C(=O)N[C@H](C=O)CCCNC(=N)N)cc2ccccc21 (stereo partly drawn) [Example 34, N-(1-methylindolyl-2carbonyl)phenylalanyl(αmethyl)-L-prolinyl-L-argi nine aldehyde hydrochloride] | 2.8 | 0.002 | 0.18 | 0.001 | 0.009 | 1,800 ng/mL | 21,000 ng/mL | 37,000 ng/mL
Cl.Cn1c(C(=O)N[C@H](CC2CCCCC2)C(=O)N2CCC[C@H]2C(=O)N[C@H](C=O)CCCNC(=N)N)cc2ccccc21 [Example 49, N-(1-methylindolyl-2-carbonyl)-D-cyclohexylalanyl-L-Prolinyl-L-Arginine Aldehyde Hydrochlonde] | 320 | 4.6 | 7.9 | 25 | 1.1 | 110 ng/mL | 1,000 ng/mL | 2,500 ng/mL
CCS(=O)(=O)N[C@@H](C(=O)N1CCC[C@H]1C(=O)N[C@H](C=O)CCCNC(=N)N)c1ccccc1.Cl [Example 64, N-(ethylsulfonyl)-D-phenylglycinyl-L-Prolinyl-L-Arginine Aldehyde Hydrochloride] | 510 | 45 | 160 | 14 | 0.34 | 34 ng/mL | 250 ng/mL | 880 ng/mL
CC(=O)N[C@H](Cc1ccccc1)C(=O)N1CCC[C@H]1C(=O)N[C@H](C=O)CCCNC(=N)N.Cl [Example 67, N-(acetyl)-D-phenylalanyl-L-Prolinyl-L-Arginine Aldehyde Hydrochloride] | 3.4 | 0.066 | 14 | 0.28 | 0.11 | 140 ng/mL | 2,700 ng/mL | 4,100 ng/mL
Cl.Cl.Cl.N=C(N)NCCC[C@@H](C=O)NC(=O)[C@@H]1CCCN1C(=O)[C@H]1C[C@H](Sc2ccccc2)CN1.O.O.O [Example 14, trans-4-phenylthio-D-prolinyl-L-prolinyl-L-arginine aldehyde trihydrochloride trihydrate] | 37 | – | – | – | – | – | – | –
COc1ccc(OC)c(S(=O)(=O)N[C@H](Cc2ccccc2)C(=O)N2CCC[C@H]2C(=O)N[C@H](C=O)CCCNC(=N)N)c1.Cl [Example 59, N-(2,5-dimethoxyphenylsulfonyl)-D-phenylalanyl-L-Prolinyl-L-Arginine Aldehyde Hydrochloride] | 200 | 8.8 | 150 | 9.5 | 1.5 | 92 ng/mL | 550 ng/mL | 2,000 ng/mL
Cl.Cl.N=C(N)NCCC[C@@H](C=O)NC(=O)[C@@H]1CCCN1C(=O)C1CNC2CCCCC21.O (stereo partly drawn) [Example 20, 3-perhydroindolylcarbonyl-L-pro-L-Arginine Aldehyde Dihydrochloride Monohydrate] | 11 | – | – | – | – | – | – | –
Cl.Cl.N=C(N)NCCC[C@@H](C=O)NC(=O)[C@@H]1CCCN1C(=O)C1CCCNC1.O (stereo partly drawn) [Example 19, 3-piperidinocarbonyl-L-Pro-L-Arginine Aldehyde Dihydrochloride Monohydrate] | 2 | – | – | – | – | – | – | –
Cl.Cl.N=C(N)NCCC[C@@H](C=O)NC(=O)[C@@H]1CCCN1C(=O)CN1CCCCC1.O [Example 18, 2-(2-Piperidino)acetyl-L-Pro-L-Arginine Aldehyde Dihydrochloride Monohydrate] | 1 | – | – | – | – | – | – | –
CCCCC(CCCC)(NC(=O)OCC)C(=O)N1CCC[C@H]1C(=O)N[C@H](C=O)CCCNC(=N)N.Cl [Example 42, N-ethoxycarbonylglycinyl(α,αdi-n-butyl)-L-prolinyl-L-arginine aldehyde hydrochloride] | – | 0.22 | 38 | 0.24 | 0.010 | 120 ng/mL | 3,000 ng/mL | 2,800 ng/mL
CC(C)C1N[C@@H](C(=O)N2CCC[C@H]2C(=O)N[C@H](C=O)CCCNC(=N)N)C(C)(C)S1.Cl.Cl (stereo partly drawn) [Example 5, D-2-Isopropyl-5,5-Dimethylthiazolidinyl-4-Carbonyl-L-Prolinyl-L-Arginine Aldehyde Dihydrochloride] | 4 | – | – | – | – | – | – | –
Cl.Cl.Cl.N=C(N)NCCC[C@@H](C=O)NC(=O)[C@@H]1CCCN1C(=O)[C@H]1C[C@H](Oc2ccc3ccccc3c2)CN1.O [Example 6, trans-4-(2-Naphthyloxy)-D-Prolinyl-L-Prolinyl-L-Arginine Aldehyde Trihydrochloride Monohydrate] | 21 | – | – | – | – | – | – | –
CNC1CCCCC1C(=O)N1CCC[C@H]1C(=O)N[C@H](C=O)CCCNC(=N)N.Cl.Cl (stereo partly drawn) [Example 21, 2-(N-methyl)aminocyclohexyl-carbonyl-L-Pro-L-Arginine Aldehyde Dihydrochloride] | 18.4 | – | – | – | – | – | – | –
